# Tests used:
# [1] = test system: IPF mice (C57BL/6, bleomycin); assay: Bleomycin-induced idiopathic pulmonary fibrosis (IPF) mouse model; type: in vivo
# Protocol: A mouse model of […] was constructed by injecting bleomycin (2 mg/kg) into the lungs of the mice through the airway after anesthesia.
# (1) Sacrificing the mice after anesthesia, and weighing the lungs and recording as Mlung; {umlaut over (2)} weighing the empty 1.5 mL centrifuge tube, filling with normal saline and the recording the weight of the centrifuge tube again; calculating the exact volume of the tube (Vtube) based on the weight and density of normal saline; (3) completely immersing the lung tissue in the normal saline of the centrifuge tube, covering the lid of centrifuge tube after removing the air, wiping off the water stains around the tube, and recording the weight as M; (4) calculating the weight of normal saline in the tube: […]; (5) calculating the volume of normal saline in the tube: Vsaline=[…], wherein, ρsaline is the density of normal saline; (6) calculating lung volume: Vlung=Vtube−Vsaline; and (7) calculating lung density: μlung=Mlung/Vlung.
# The lung tissues were fixed by immersion in 4% paraformaldehyde and then gradiently dehydrated in 70% ethanol for 5 hours, 80% ethanol for 1 h, 90% ethanol for 1 h, 95% ethanol for 1 h, absolute ethanol for 1 h, absolute ethanol for 0.5 h, absolute ethanol+TO (1:1) for 1 h, TO for 1 h, TO for 1 h, paraffin (62° C.) for 1 h, paraffin (62° C.) for 1 h, paraffin (62° C.) for 1 h. After dehydration, the lung tissues were wrapped in the wax blocks and sectioned with a thickness of 4 μm. The paraffin sections were baked at 65° C. for 1 h and then exposed to xylene for 5 min, xylene for 5 min, absolute ethanol for 5 min, 95% ethanol for 5 min, 90% ethanol for 5 min, 85% ethanol for 5 min, 75% ethanol for 5 min; then, gently boiled in citric acid solution for 10 min and naturally cooled to room temperature, and exposed to 3% hydrogen peroxide for 10 min. The sections were blocked with goat antiserum for 1 h at room temperature, incubated overnight with primary antibodies against CD45 (abeam), CD3 (abeam) or CD68 (abeam), then washed 3 times with PBS for 5 min each time, and then incubated with immunohistochemical secondary antibodies (Fujian Maixin) at room temperature for 20 min. Then, the sections was subjected to color development for 2 min by using DAB chromogenic kit (Fujian Maixin), rinsed with water to remove DAB, stained with hematoxylin for 2 min and rinsed with running water for 8 minutes to return blue. After drying, the sections were sealed with neutral gum and photographed.
# In this example, the degree of fibrosis in lung tissue was detected through Masson staining, using the Masson trichrome staining kit (Fujian Maixin).
# To investigate whether C1632 can be used for the treatment of IPF, the inventors treated IPF mice with C1632 according to the method of FIG. 9A, and divided the mice into (1) normal mice+normal saline group; (2) normal mice+C1632 group; (3) IPF mice+normal saline group; and (4) IPF mice+C1632 group, each group had at least 4 mice. At the end of the experiment, the lung tissues of the mice were taken and photographed. […] The lungs of the model group are dark red, and some lung lobes are gray white, hardened, and scattered gray white plaques of different sizes could be seen.
# TERC−/− G4 mice = assay: TERC−/− G4 senescence mouse model: survival and lung immunohistochemistry; type: in vivo
# Protocol: Paraffin sections were melted at 65° C. for 1 h, rehydrated by rinsing in xylene for 10 min, xylene for 10 min, absolute ethanol for 3 min, 95% ethanol for 3 min, 85% ethanol for 3 min, 70% ethanol for 3 min and water, followed by two rinses with PBS for 5 min each. The sections were blocked with 3% hydrogen peroxide (in methanol) for 10 min, and then washed twice with PBS for 5 min each time. Then the sections were put into antigen retrieval buffer (pH 6.0) and heat by microwave for 10 min to retrieve antigen, then, slowly cool the solution at room temperature for 1 h, and wash the solution twice with PBS for 5 min each time. The sections were blocked with 10% goat serum for 1 h, incubated overnight with the primary antibodies at 4° C. in the dark, washed twice with PBS for 5 min each time, incubated with the secondary antibodies at room temperature in the dark for 30 min, and washed twice with PBS for 5 min each time. The sections were subjected to DAB color development and hematoxylin staining, and then rinsed in tap water for 8 min to produce a blue color. The sections were dehydrated with gradient alcohol, dried, and sealed with neutral gum.
# 1, TERC−/−G4 senescence mouse model: Mice had very long telomere length, and it took 3-6 generations of breeding to develop a premature senescence phenotype after telomerase knockout. TERC+/−mice were screened for TERC+/−mice as breeding protection. The first generation of TERC−/− mice was G1 mice. G1 mice were mated with each other to give birth to G2 mice, which continued to reproduce until G4. At this time, mice had very short telomeres and could develop senescence phenotype at 3-4 months of age.
# 2, Genotype identification of TERC knockout mice: Small segments of tails were cut from the identified mice and digested in 10 mM Tris-HCl 0.5% SDS 1 mM EDTA pH8.0 buffer containing 0.4 mg/mL proteinase K at 65° C. for 2 hours, and then 0.5 μL digestive solution was used as a template for PCR amplification. PCR products which were 250 bp indicated wild-type and 180 bp indicated TERC knockdown.
# 3, One-month-old G4 mice were given 68 mg/kg C1632 once a week, with 10 mice in each group.
# 4, Since senescent cells were mainly eliminated by immune cells in vivo, in addition to inhibiting the generation of senescent cells, the inventors also examined the effect of C1632 on the immune microenvironment of senescent lung tissue.
# [2] = stated for a known small molecule drug, no test described; cited from earlier work
structure (smiles),measurement,setting,value
CC(=O)N(C)c1cccc(-c2ccc3nnc(C)n3n2)c1 [C1632],Lung density relative to water (lung lobes placed in water),"[1]; IPF mice + C1632, FIG. 9C",less dense than water
same,Lung density (drainage method),"[1]; IPF mice + C1632 vs IPF mice + saline, FIG. 9D",significantly reduced
same,"Lung shape, color and hardness (gross appearance)","[1]; IPF mice + C1632 vs control group, FIG. 9B",closer to those of the control group
same,"Infiltration of CD45 (total immune cells) in lung, IHC","[1]; IPF mice, injection of C1632, FIG. 10A, 10B",significantly reduces the infiltration of immune cells
same,"Infiltration of CD68 (macrophages) in lung, IHC","[1]; IPF mice, injection of C1632, FIG. 10A, 10C",significantly reduces the infiltration
same,"Infiltration of CD3 (T cells) in lung, IHC","[1]; IPF mice, injection of C1632, FIG. 10A, 10D",significantly reduces the infiltration
same,Hydroxyproline content in lung,"[1]; IPF mice, FIG. 9I",significantly inhibit the increase of hydroxyproline
same,"Alveolar architecture and fibrosis areas, H&E and Masson staining","[1]; lungs of C1632-treated IPF mice, FIG. 9E to 9G",more alveolar architecture and less fibrosis areas
same,Life span of TERC−/− G4 mice,"TERC−/− G4 mice; 68 mg/kg once a week, survival curves FIG. 2A",greatly extended the life span
same,Mice still surviving when all control mice had died,"TERC−/− G4 mice; TERC−/− G4 mice, 68 mg/kg once a week from one month of age, 3 and a half months after the experiment, FIG. 2A",80%
same,Immunosuppressive T cell marker FOXP3 in senescent lung tissue (immunohistochemistry),"TERC−/− G4 mice; lung tissues from senescence mice, FIG. 3",reduces the immunosuppressive T cell marker FOXP3
same,"Lung tissue senescence (expression of senescence markers p16 and p21, immunohistochemistry)","TERC−/− G4 mice; lungs of TERC−/− G4 mice, 68 mg/kg once a week, FIG. 2B",significantly inhibited lung tissue senescence
same,Solubility,[2],"can be dissolved in water, ethanol or DMSO"
same,Thermal stability,[2],good thermal stability

# — patent US20240277708A1, “Use of [1,2,4] Triazolo [4,3-B] Pyridazine Derivative For Preventing and Treating Senescence and Senescence-Related Diseases” (The Eighth Affiliated Hospital, Sun Yat-Sen University, priority 2023, published 2024)
